This passage reports CC50, IC50 and EC50 results from patent publication US11021444B2, “Antiviral compounds” (priority 2013, dated 2021).

Data set [1] can be described thus: Cytotoxicity Determination (CCK-8, without addition of virus). The format is cell-based. Particulars: human, 50% cytotoxicity concentration (CC50). The procedure: (§1) CPE reduction assays are performed as described by Sidwell and Huffman et al., Appl. Microbiol. (1971) 22(5):797-801 with slight modifications. HEp-2 cells (ATCC #, CCL-23) are seeded at a density of 1,500 cells/30 μl/well into the 384-well cell plate(s) (Corning #3701) one day prior to the assay. Compounds are added into 384-well cell plates by Labcyte POD 810 Plate Assembler system. Each of the test compounds is provided to duplicate wells of a 384-well cell plate at final concentrations starting from 100 μM or 1 μM using 1/3 stepwise dilutions for 9 points. Quick-thaw Respiratory Syncytial Virus (RSV) long strain (ATCC #VR-26) stock in a 37° C. water bath. Place on ice until ready to use. Viruses are diluted to the concentration of 100 TCID50/30 μL with medium and 30 μl diluted RSV are added into related wells of 384-well cell plates. For each plate, sixteen wells are set aside as uninfected, untreated cell controls (CC), and nine wells per test plate receive virus only as a control for virus replication (VC). The final DMSO concentration of all wells is 1%. Place the plates at 37° C., 5% CO2 for 5 days.
In order to determine the compound cytotoxicity, in parallel, each of the compounds is applied to duplicate wells in a 384-well cell plate at serial final concentrations starting from 100 μM using 1/2 stepwise dilutions for 7 points without addition of virus. Incubate the cells at 37° C., 5% CO2 for 5 days. Add 6 μL CCK-8 into each well and incubate in a CO2 incubator at 37° C. for 3-4 hours.

The target in data set [2] is recombinant RSV complex (Human respiratory syncytial virus A, UniProt P28887). Nature of the data set: RSV Polymerase Inhibition Assay. Type of data set: biochemical. The procedure:
Standard RSV polymerase assays were conducted in the presence of 10 nM recombinant RSV complex in a reaction buffer containing Tris-HCl pH7.5, 6 mM MgCl2, and other additives and substrates including RNA oligonucleotides and radionucleotides. Standard reactions were incubated in 96-well plate format for 2 h at 30° C., in the presence of increasing concentration of inhibitor. The reaction was stopped with 90 μL of 0.1M EDTA, and the reaction product was transferred to a “reading” 96-well plate. After washing of the plate, radiolabeled RNA products were detected according to standard procedures with a Trilux Topcount scintillation counter.

Data set [3] deals with Respiratory Syncytial Virus (RSV) long strain. The data set can be described thus: microbe, parasite or virus in culture. The format is cell-based. Conditions: human respiratory syncytial virus, Tables A and B list compounds by EC50 band. The procedure: as §1
After 5 days incubation, observe the CPE of cells in all wells. […] Six μl of cell counting kit-8 reagent (CCK-8, Dojindo Molecular Technologies Inc., CK04-20) are added to each well, which allows colorimetric assays to determine the number of viable cells through the dehydrogenase activity detection. After 3-4 hour incubation, the absorbance of each well is measured with a spectrophotometric plate reader at 450 nm wavelength, using a 630 nm filter as background according to manufacturer's instruction.

Where [4] appears, read: HEp-2, 120 h, read-out: 50% effective concentration (EC50), HEp-2 cells infected with RSV long strain, 5 days, CCK-8 readout.

Molecules are shown by their SMILES. Read-outs that look alike come from different tables or passages of the source.

Sequence of recombinant RSV complex (P28887 whole entry): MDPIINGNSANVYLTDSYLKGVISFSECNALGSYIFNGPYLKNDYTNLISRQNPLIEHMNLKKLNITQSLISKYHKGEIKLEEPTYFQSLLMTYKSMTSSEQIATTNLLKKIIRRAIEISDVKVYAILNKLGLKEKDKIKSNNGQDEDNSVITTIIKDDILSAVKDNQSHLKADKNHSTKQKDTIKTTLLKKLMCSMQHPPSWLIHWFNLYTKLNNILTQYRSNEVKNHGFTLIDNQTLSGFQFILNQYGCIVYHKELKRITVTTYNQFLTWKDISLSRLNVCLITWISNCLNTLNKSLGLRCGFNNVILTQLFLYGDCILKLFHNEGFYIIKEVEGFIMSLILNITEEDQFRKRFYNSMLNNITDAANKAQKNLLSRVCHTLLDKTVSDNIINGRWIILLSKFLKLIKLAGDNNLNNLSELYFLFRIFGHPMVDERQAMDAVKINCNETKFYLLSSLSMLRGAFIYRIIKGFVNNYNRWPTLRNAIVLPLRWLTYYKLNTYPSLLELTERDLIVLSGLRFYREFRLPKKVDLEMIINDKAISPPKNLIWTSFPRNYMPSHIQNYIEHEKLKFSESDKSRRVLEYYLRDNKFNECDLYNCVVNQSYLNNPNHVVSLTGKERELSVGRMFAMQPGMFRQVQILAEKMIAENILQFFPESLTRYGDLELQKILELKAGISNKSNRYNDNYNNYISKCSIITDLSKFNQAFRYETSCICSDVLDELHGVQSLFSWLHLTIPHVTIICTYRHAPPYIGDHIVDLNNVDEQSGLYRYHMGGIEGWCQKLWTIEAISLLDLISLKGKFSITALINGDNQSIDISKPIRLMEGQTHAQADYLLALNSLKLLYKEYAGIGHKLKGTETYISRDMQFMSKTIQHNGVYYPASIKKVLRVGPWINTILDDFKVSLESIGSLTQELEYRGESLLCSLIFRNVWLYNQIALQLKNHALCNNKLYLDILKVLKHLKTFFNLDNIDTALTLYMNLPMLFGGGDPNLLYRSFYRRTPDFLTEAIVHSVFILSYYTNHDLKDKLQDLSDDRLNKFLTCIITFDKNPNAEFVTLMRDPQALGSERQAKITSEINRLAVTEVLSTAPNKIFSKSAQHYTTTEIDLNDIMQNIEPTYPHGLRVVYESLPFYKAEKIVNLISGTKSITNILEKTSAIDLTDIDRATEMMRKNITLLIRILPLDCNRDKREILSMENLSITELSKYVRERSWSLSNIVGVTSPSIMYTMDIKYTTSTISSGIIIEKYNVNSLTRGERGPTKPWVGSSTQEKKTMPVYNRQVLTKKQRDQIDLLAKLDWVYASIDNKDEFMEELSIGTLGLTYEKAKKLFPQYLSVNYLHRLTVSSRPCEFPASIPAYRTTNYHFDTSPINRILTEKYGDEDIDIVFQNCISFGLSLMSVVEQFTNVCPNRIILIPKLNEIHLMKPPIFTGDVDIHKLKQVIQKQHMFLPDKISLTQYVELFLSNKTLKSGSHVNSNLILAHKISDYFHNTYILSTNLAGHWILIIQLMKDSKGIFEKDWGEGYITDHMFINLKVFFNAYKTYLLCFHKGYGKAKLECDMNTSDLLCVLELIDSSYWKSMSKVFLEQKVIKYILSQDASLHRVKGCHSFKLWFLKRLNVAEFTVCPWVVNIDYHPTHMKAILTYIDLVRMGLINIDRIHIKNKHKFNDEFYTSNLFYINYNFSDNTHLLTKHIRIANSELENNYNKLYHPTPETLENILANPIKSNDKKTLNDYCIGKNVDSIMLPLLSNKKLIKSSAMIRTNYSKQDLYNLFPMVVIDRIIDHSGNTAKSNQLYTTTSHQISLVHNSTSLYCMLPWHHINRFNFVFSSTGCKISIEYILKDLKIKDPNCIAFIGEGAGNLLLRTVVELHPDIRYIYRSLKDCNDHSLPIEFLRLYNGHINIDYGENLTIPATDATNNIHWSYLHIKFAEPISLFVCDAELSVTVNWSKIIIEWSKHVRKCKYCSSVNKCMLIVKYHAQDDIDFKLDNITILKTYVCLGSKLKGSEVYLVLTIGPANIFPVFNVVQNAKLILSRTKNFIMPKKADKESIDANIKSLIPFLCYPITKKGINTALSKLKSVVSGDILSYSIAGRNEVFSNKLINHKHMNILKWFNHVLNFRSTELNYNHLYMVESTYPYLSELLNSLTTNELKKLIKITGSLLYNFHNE
Sequence of recombinant RSV complex (P03421 whole entry, further chain): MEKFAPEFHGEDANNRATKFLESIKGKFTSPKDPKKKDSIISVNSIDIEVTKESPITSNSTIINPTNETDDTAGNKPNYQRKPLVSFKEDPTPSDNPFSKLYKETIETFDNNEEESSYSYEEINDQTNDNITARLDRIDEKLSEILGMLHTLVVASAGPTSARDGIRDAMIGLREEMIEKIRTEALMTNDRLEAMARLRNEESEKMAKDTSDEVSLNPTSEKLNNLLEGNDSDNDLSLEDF

A word on the CC50: it is the concentration giving 50% cytotoxicity. The term IC50 denotes the concentration needed to halve the response being measured. For `COc1cc(C(=O)NCC(O)(c2ccc(OC)c(-c3ccc(F)c(Cl)c3)n2)C(F)(F)F)ccc1OC1CC1` (single isomer, unassigned) [Compound 247], in data set [1], the CC50 at 5 days is > 100 µM. The IC50 in data set [2] is < 10 µM.
In data set [1], `COc1cc(-c2csc3c(F)cccc23)nc(C(O)CNC(=O)c2cc(OC)c(OC)cc2O)c1` (centres unmarked) [Compound 110] came in with a CC50 at 5 days of 10 to 100 µM.
For `COc1cc(C(=O)NCC2(c3ccc(OC)c(-c4ccc(F)c(Cl)c4)n3)CNC(=O)O2)ccc1OCCO` (centres unmarked) [Compound 180], the CC50 at 5 days in data set [1] was > 100 µM. Besides, the IC50 in data set [2] is < 100 µM.
The like results for `COc1cc(C(=O)NCC(O)(CN(CCN)CC(=O)O)c2ccc(OC)c(-c3ccc(F)c(Cl)c3)n2)ccc1OCCO` (centres unmarked) [Compound 183] were, in that order, > 100 µM and < 1 µM.
In the case of `COc1ccc(C(O)(CNC(=O)c2ccc3ncccc3c2OC)C(F)(F)F)nc1-c1ccc(F)c(Cl)c1` (centres unmarked) [Compound 269], the CC50 at 5 days in data set [1] fell in the range of 10 to 100 µM.
Regarding `CC(C)(N)c1cc(-c2ccc(F)c(Cl)c2)nc(C(O)(CNC(=O)c2ccc3c(c2)OCO3)C(F)(F)F)c1` (centres unmarked) [Compound 274], the EC50 in data set [3] (setting [4]) is < 1 µM. Also, the IC50 in data set [2] was < 1 µM.
On to `CC(C)(N)c1cc(-c2ccc(F)c(Cl)c2)nc(C(O)(CNC(=O)c2cnc(Cl)s2)C(F)(F)F)c1` (centres unmarked) [Compound 276], for which the EC50 in data set [3] (setting [4]) is 1 to 50 µM. The IC50 in data set [2] was < 1 µM.
For the compound `CC(C)(N)c1cc(-c2ccc(F)c(Cl)c2)nc(C(O)(CNC(=O)c2csc(Cl)n2)C(F)(F)F)c1` (centres unmarked) [Compound 280], the EC50 in data set [3] (120 h, read-out: 50% effective concentration (EC50), HEp-2 cells infected with RSV long strain, 5 days, CCK-8 readout) fell in the range of 1 to 50 µM. For the same compound, the IC50 in data set [2] was < 1 µM.
Regarding `COc1cc(C(=O)NCC(O)(c2ccc(OC)c(C3COc4c(F)cccc43)n2)C2CC2)ccc1OCCO` (centres unmarked) [Compound 427], the CC50 at 5 days in data set [1] was > 100 µM. Also, the IC50 in data set [2] was < 100 µM.
Turning to `COc1cc(C(=O)NCC(C)(O)c2cccc(-c3ccc(F)c(Cl)c3)c2)ccc1OCCO` (centres unmarked) [Compound 439], the CC50 at 5 days in data set [1] is > 100 µM. In data set [2], the IC50 was < 100 µM.
With `COc1cc(C(=O)NCC(C)(O)c2csc(-c3ccc(F)c(Cl)c3)n2)ccc1OCCO` (centres unmarked) [Compound 441], in data set [1], the CC50 at 5 days was > 100 µM. For the same compound, in data set [2], the IC50 was < 100 µM.
In data set [1], `COc1cc(C(=O)NCC(O)(c2ccc(OC)c(-c3cnc(Cl)s3)n2)C(F)(F)F)ccc1OCCO` (centres unmarked) [Compound 468] returned a CC50 at 5 days of 10 to 100 µM.
As to `CC(C)(N)c1cc(-c2ccc(F)c(Cl)c2)nc(C(O)(CNC(=O)c2coc(Cl)n2)C(F)(F)F)c1` (centres unmarked) [Compound 478], the EC50 in data set [3] (setting [4]) lay within 1 to 50 µM. Moreover, the IC50 in data set [2] is < 10 µM.
Regarding `COc1cc(C(=O)NCC(O)(c2cc(CCCN)cc(-c3ccc(F)c(Cl)c3)n2)C(F)(F)F)ccc1OC1CC1` (centres unmarked) [Compound 591], the EC50 in data set [3] (setting [4]) is < 1 µM. Moreover, the IC50 in data set [2] is < 1 µM.
Turning to `COc1ccc(-c2cc(C(C)(C)N)cc(C(O)(CNC(=O)c3ccc(OCCO)c(OC)c3)C(F)(F)F)n2)cn1` (centres unmarked) [Compound 660], in data set [2], the concentration for half-maximal inhibition (IC50) was < 10 µM.
On the same count and under the same terms, under `COc1cc(C(=O)NCC(O)(c2cc3c(c(-c4ccc(Cl)nc4)n2)OCC3(C)N)C(F)(F)F)ccc1OC1CC1` (centres unmarked) [Compound 668] stands < 1 µM; under `COc1cc(C(=O)NCC(O)(c2cc(C(C)(N)C(F)F)cc(-c3ccc(F)cc3)n2)C(F)(F)F)ccc1OCCO` (centres unmarked) [Compound 669], < 1 µM.
For `COc1cc(C(=O)NCC(O)(c2cc3c(c(-c4ccnc(C)c4)n2)OCC3(C)N)C(F)(F)F)ccc1OCCO` (centres unmarked) [Compound 670], the CC50 at 5 days in data set [1] is > 100 µM.
On to `COc1cc(C(=O)NCC(O)(c2cc3c(c(-c4ccc(C)nc4)n2)OCC3(C)N)C(F)(F)F)ccc1OCCO` (centres unmarked) [Compound 671], for which the CC50 at 5 days in data set [1] is > 100 µM.
Take `COc1cc(C(=O)NCC(O)(c2cc3c(c(-c4ccc(C(N)=O)cc4)n2)OCC3(C)N)C(F)(F)F)ccc1OCCO` (centres unmarked) [Compound 674]: the CC50 at 5 days in data set [1] was > 100 µM.
For the compound `COc1cc(C(=O)NCC(O)(c2cc(C(C)(N)CF)cc(-c3ccc(F)cc3)n2)C(F)(F)F)ccc1OCCO` (centres unmarked) [Compound 676], the IC50 in data set [2] was < 1 µM.
